Measured values reported in patent US11477982B2, “2-amino-5-oxyalkyl-pyrimidine derivatives and their use for controlling undesired plant growth” (Bayer CropScience Aktiengesellschaft, priority 2017, dated 2022).

Legend:
Format in all cases: in vivo
[1] = test system: AMARE: Amaranthus retroflexus; test: Pre-emergence herbicidal effect; settings: pre-emergence
Outline: (§1)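 Compounds applied before emergence onto soil over sown seeds (WP or EC, 0.5% additive, 600 l/ha water); greenhouse culture about 3 weeks, then percent activity judged by eye against untreated plants.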

SETVI: Setaria viridis [2] = test: Pre-emergence herbicidal effect; settings: pre-emergence
Outline: as §1

AVEFA: Avena fatua [3] = test: Pre-emergence herbicidal effect
Outline: as §1

STEME: Stellaria media [4] = test: Pre-emergence herbicidal effect; settings: pre-emergence; dosage 320 g/ha
Outline: as §1

[5] = test system: ALOMY: Alopecurus myosuroides; test: Pre-emergence herbicidal effect; settings: pre-emergence
Outline: as §1

VIOTR: Viola tricolor [6] = test: Pre-emergence herbicidal effect; settings: dosage 320 g/ha
Outline: as §1

VERPE: Veronica persica [7] = test: Pre-emergence herbicidal effect; settings: dosage 320 g/ha
Outline: as §1

PHBPU: Ipomoea purpurea [8] = test: Pre-emergence herbicidal effect
Outline: as §1

[9] = test system: POLCO: Polygonum convolvulus; test: Pre-emergence herbicidal effect
Outline: as §1

LOLRI: Lolium rigidum [10] = test: Pre-emergence herbicidal effect
Outline: as §1

[11] = test system: MATIN: Matricaria inodora; test: Pre-emergence herbicidal effect; settings: pre-emergence; dosage 320 g/ha
Outline: as §1

HORMU: Hordeum murinum = test: Pre-emergence herbicidal effect; settings: pre-emergence
Outline: as §1

[12] = test system: ABUTH: Abutilon theophrasti; test: Pre-emergence herbicidal effect
Outline: as §1

[13] = test system: ECHCG: Echinochloa crus-galli; test: Pre-emergence herbicidal effect; settings: pre-emergence
Outline: as §1

[14] = test system: AMARE: Amaranthus retroflexus; test: Post-emergence herbicidal effect
Outline: (§2)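 Foliar post-emergence spray on one-leaf-stage plants raised in sandy loam in the greenhouse, using WP or EC formulations with 0.5% additive at a water rate of 600 l/ha; effect judged visually about 3 weeks on, 0% to 100% relative to untreated plants.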

SETVI: Setaria viridis [15] = test: Post-emergence herbicidal effect
Outline: as §2

AVEFA: Avena fatua [16] = test: Post-emergence herbicidal effect; settings: dosage 320 g/ha
Outline: as §2

STEME: Stellaria media [17] = test: Post-emergence herbicidal effect
Outline: as §2

[18] = test system: ALOMY: Alopecurus myosuroides; test: Post-emergence herbicidal effect
Outline: as §2

VIOTR: Viola tricolor [19] = test: Post-emergence herbicidal effect
Outline: as §2

VERPE: Veronica persica [20] = test: Post-emergence herbicidal effect; settings: dosage 320 g/ha
Outline: as §2

PHBPU: Ipomoea purpurea [21] = test: Post-emergence herbicidal effect; settings: dosage 320 g/ha
Outline: as §2

[22] = test system: POLCO: Polygonum convolvulus; test: Post-emergence herbicidal effect; settings: dosage 320 g/ha
Outline: as §2

LOLRI: Lolium rigidum [23] = test: Post-emergence herbicidal effect
Outline: as §2

[24] = test system: MATIN: Matricaria inodora; test: Post-emergence herbicidal effect
Outline: as §2

[25] = test system: ABUTH: Abutilon theophrasti; test: Post-emergence herbicidal effect
Outline: as §2

[26] = test system: ECHCG: Echinochloa crus-galli; test: Post-emergence herbicidal effect
Outline: as §2

CYPES = test: Pre-emergence herbicidal effect
Outline: as §1

## Cc1ccc2c(c1)[C@H](Nc1ncc(C(C)(C)O)c(C)n1)[C@@H](C)C2 [Example 1.6]
[1]; dosage 80 g/ha
  Herbicidal action against AMARE: 100%
[1]; dosage 320 g/ha
  Herbicidal action against AMARE: 100%
SETVI: Setaria viridis [2]; dosage 80 g/ha
  Herbicidal action against SETVI: 100%
SETVI: Setaria viridis [2]; dosage 320 g/ha
  Herbicidal action against SETVI: 100%
AVEFA: Avena fatua [3]; dosage 80 g/ha
  Herbicidal action against AVEFA: 80%
AVEFA: Avena fatua [3]; dosage 320 g/ha
  Herbicidal action against AVEFA: 100%
STEME: Stellaria media [4]
  Herbicidal action against STEME: 100%
[5]; dosage 80 g/ha
  Herbicidal action against ALOMY: 100%
[5]; dosage 320 g/ha
  Herbicidal action against ALOMY: 100%
VIOTR: Viola tricolor [6]
  Herbicidal action against VIOTR: 100%
VERPE: Veronica persica [7]
  Herbicidal action against VERPE: 100%
PHBPU: Ipomoea purpurea [8]; dosage 80 g/ha
  Herbicidal action against PHBPU: 80%
PHBPU: Ipomoea purpurea [8]; dosage 320 g/ha
  Herbicidal action against PHBPU: 100%
[9]; dosage 80 g/ha
  Herbicidal action against POLCO: 100%
[9]; dosage 320 g/ha
  Herbicidal action against POLCO: 100%
LOLRI: Lolium rigidum [10]; dosage 80 g/ha
  Herbicidal action against LOLRI: 100%
LOLRI: Lolium rigidum [10]; dosage 320 g/ha
  Herbicidal action against LOLRI: 100%
[11]
  Herbicidal action against MATIN: 100%
HORMU: Hordeum murinum; dosage 80 g/ha
  Herbicidal action against HORMU: 100%
HORMU: Hordeum murinum; dosage 320 g/ha
  Herbicidal action against HORMU: 100%
[12]; dosage 80 g/ha
  Herbicidal action against ABUTH: 90%
[12]; dosage 320 g/ha
  Herbicidal action against ABUTH: 100%
[13]; dosage 80 g/ha
  Herbicidal action against ECHCG: 100%
[13]; dosage 320 g/ha
  Herbicidal action against ECHCG: 100%
[14]; dosage 80 g/ha
  Herbicidal action against AMARE: 100%
[14]; dosage 320 g/ha
  Herbicidal action against AMARE: 100%
SETVI: Setaria viridis [15]; dosage 80 g/ha
  Herbicidal action against SETVI: 90%
SETVI: Setaria viridis [15]; dosage 320 g/ha
  Herbicidal action against SETVI: 100%
AVEFA: Avena fatua [16]
  Herbicidal action against AVEFA: 100%
STEME: Stellaria media [17]; dosage 80 g/ha
  Herbicidal action against STEME: 100%
STEME: Stellaria media [17]; dosage 320 g/ha
  Herbicidal action against STEME: 100%
[18]; dosage 80 g/ha
  Herbicidal action against ALOMY: 90%
[18]; dosage 320 g/ha
  Herbicidal action against ALOMY: 100%
VIOTR: Viola tricolor [19]; dosage 80 g/ha
  Herbicidal action against VIOTR: 90%
VIOTR: Viola tricolor [19]; dosage 320 g/ha
  Herbicidal action against VIOTR: 90%
VERPE: Veronica persica [20]
  Herbicidal action against VERPE: 80%
PHBPU: Ipomoea purpurea [21]
  Herbicidal action against PHBPU: 100%
[22]
  Herbicidal action against POLCO: 80%
LOLRI: Lolium rigidum [23]; dosage 80 g/ha
  Herbicidal action against LOLRI: 40%
LOLRI: Lolium rigidum [23]; dosage 320 g/ha
  Herbicidal action against LOLRI: 100%
[24]; dosage 80 g/ha
  Herbicidal action against MATIN: 20%
[25]; dosage 80 g/ha
  Herbicidal action against ABUTH: 80%
[25]; dosage 320 g/ha
  Herbicidal action against ABUTH: 90%
[26]; dosage 80 g/ha
  Herbicidal action against ECHCG: 100%
[26]; dosage 320 g/ha
  Herbicidal action against ECHCG: 100%

## CC(C)(O)c1cnc(N[C@@H]2CCCc3ccccc32)nc1 [Example 1.8, 2-{2-[(1R)-1,2,3,4-Tetrahydronaphthalen-1-ylamino]pyrimidin-5-yl}propan-2-ol]
[1]; dosage 320 g/ha
  Herbicidal action against AMARE: 100%
SETVI: Setaria viridis [2]; dosage 320 g/ha
  Herbicidal action against SETVI: 100%
AVEFA: Avena fatua [3]; dosage 320 g/ha
  Herbicidal action against AVEFA: 100%
STEME: Stellaria media [4]
  Herbicidal action against STEME: 100%
[5]; dosage 320 g/ha
  Herbicidal action against ALOMY: 100%
VIOTR: Viola tricolor [6]
  Herbicidal action against VIOTR: 100%
VERPE: Veronica persica [7]
  Herbicidal action against VERPE: 100%
PHBPU: Ipomoea purpurea [8]; dosage 320 g/ha
  Herbicidal action against PHBPU: 100%
[9]; dosage 320 g/ha
  Herbicidal action against POLCO: 100%
LOLRI: Lolium rigidum [10]; dosage 320 g/ha
  Herbicidal action against LOLRI: 100%
[11]
  Herbicidal action against MATIN: 100%
HORMU: Hordeum murinum; dosage 320 g/ha
  Herbicidal action against HORMU: 100%
CYPES; dosage 320 g/ha
  Herbicidal action against CYPES: 70%
[12]; dosage 320 g/ha
  Herbicidal action against ABUTH: 100%
[13]; dosage 320 g/ha
  Herbicidal action against ECHCG: 100%
[14]; dosage 320 g/ha
  Herbicidal action against AMARE: 100%
SETVI: Setaria viridis [15]; dosage 320 g/ha
  Herbicidal action against SETVI: 100%
AVEFA: Avena fatua [16]
  Herbicidal action against AVEFA: 100%
STEME: Stellaria media [17]; dosage 320 g/ha
  Herbicidal action against STEME: 100%
[18]; dosage 320 g/ha
  Herbicidal action against ALOMY: 70%
VIOTR: Viola tricolor [19]; dosage 320 g/ha
  Herbicidal action against VIOTR: 90%
VERPE: Veronica persica [20]
  Herbicidal action against VERPE: 90%
PHBPU: Ipomoea purpurea [21]
  Herbicidal action against PHBPU: 80%
[22]
  Herbicidal action against POLCO: 90%
[24]; dosage 320 g/ha
  Herbicidal action against MATIN: 100%
[25]; dosage 320 g/ha
  Herbicidal action against ABUTH: 90%
[26]; dosage 320 g/ha
  Herbicidal action against ECHCG: 100%

## Cc1ccc2c(c1)[C@H](Nc1ncc(C(C)(C)O)c(N)n1)[C@@H](C)C2 [drawing 3, reference compound]
CYPES; dosage 80 g/ha
  Herbicidal action against CYPES: 60%
CYPES; dosage 320 g/ha
  Herbicidal action against CYPES: 70%
